The source made the active and inactive calls. The calls are words filed in the database; no cut-off is given here.
Experiments:
[1] = biological target: T1, NAD-dependent protein deacetylase sirtuin-1 (Homo sapiens) (UniProt Q96EB6); experiment: (§1) Inhibition of human SIRT1
T1 sequence (whole entry): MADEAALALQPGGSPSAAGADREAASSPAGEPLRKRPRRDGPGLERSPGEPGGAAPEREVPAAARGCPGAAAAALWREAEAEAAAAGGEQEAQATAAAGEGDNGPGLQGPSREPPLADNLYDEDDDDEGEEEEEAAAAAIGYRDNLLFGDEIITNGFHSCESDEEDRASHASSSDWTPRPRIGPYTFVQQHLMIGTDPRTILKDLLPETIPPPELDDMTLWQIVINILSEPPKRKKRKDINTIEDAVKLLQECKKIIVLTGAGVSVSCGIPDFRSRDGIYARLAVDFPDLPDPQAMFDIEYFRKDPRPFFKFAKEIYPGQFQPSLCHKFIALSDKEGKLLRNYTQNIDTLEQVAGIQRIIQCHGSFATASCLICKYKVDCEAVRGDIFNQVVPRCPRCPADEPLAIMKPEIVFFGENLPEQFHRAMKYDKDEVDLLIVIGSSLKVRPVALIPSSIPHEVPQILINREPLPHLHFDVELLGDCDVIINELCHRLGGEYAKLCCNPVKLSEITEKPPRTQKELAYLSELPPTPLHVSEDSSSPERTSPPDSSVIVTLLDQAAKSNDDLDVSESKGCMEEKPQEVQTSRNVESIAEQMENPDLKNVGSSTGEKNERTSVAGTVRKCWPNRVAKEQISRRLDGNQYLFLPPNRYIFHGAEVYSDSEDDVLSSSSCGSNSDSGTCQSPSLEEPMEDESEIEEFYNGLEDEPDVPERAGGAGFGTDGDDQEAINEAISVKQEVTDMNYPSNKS

[2] = biological target: T2, NAD-dependent protein deacetylase sirtuin-1 (Homo sapiens, UniProt Q96EB6); experiment: as §1
T2 sequence (Q96EB6 whole entry): T1 sequence (whole entry)

[3] = biological target: T1, NAD-dependent protein deacetylase sirtuin-1 (Homo sapiens); experiment: Inhibition of human SIRT1 at 2 mM

Which IC25 [1] does the source give for `C/C(S)=N/CCCC[C@H](NC(=O)OCC1c2ccccc2-c2ccccc21)C(=O)O` here?
Its IC25 is 2 mM.

How did the IC50 [2] turn out when `CSCC[C@H](NC(=O)[C@H](CC(C)C)NC(=O)[C@H](CCCC/N=C(/C)S)NC(=O)[C@H](CCCCN)NC(=O)[C@H](Cc1c[nH]cn1)NC(=O)[C@H](CCCN=C(N)N)NC(=O)[C@H](CO)NC(=O)[C@@H](NC(=O)[C@H](CO)NC(=O)[C@H](CCC(N)=O)NC(=O)CNC(=O)[C@H](CCCCN)NC(=O)[C@@H](N)CCCCN)[C@@H](C)O)C(=O)N[C@@H](Cc1ccccc1)C(=O)N[C@@H](CCCCN)C(=O)N[C@H](C(=O)N[C@@H](CCC(=O)O)C(=O)NCC(=O)O)[C@@H](C)O` was run?
The IC50 was 0.002 mM.

With `CC(=O)N[C@@H](CCCC/N=C(/C)S)C(=O)O` as the compound, how does the Activity [3] read?
Its Activity is “inactive”.
